Data published in patent US7304037B2, “Cytostatic conjugates with integrin ligands” (priority 2001, dated 2007).
In brackets after ≈: the same amount, converted by molar mass. Where two headings read alike, the source gives them in different places.

Assays:
[1] = system: breast cancer model (MX-1)
Source text: (§1) In all in-vivo experiments for investigating the inhibition of tumour growth, athymic nude mice (NMRI nu/nu strain) were used. The tumour was developed by serial passage in nude mice, The human origin of the tumour was confirmed by isoenzymatic and immunohistochemical methods.
(§2) The tumour was implanted subcutaneously in both flanks of nu/nu nude mice 6 to 8 weeks old. […] The mice were assigned to the treatment group or the control group (5 mice per group having 8 to 10 assessable tumours) by randomization.
(§3) The size of the tumours was measured in two dimensions by means of a slide gauge. The tumour volume which correlated well with the cell count, was then used for all assessments. The volume was calculated according to the formula “length×breadth×breadth/2” ([a×b^2]/2; a and b representing two diameters arranged at right angles).
(§4) The values of the relative tumour volume (RTV) were calculated for each individual tumour by dividing the tumour size on day X with the tumour size on day 0 (at the time of randomization). The average values of the RTV were then used for the further assessment.
(§5) The inhibition of the increase of the tumour volume (tumour volume of the test group/control group, T/C, in percent) was the final measured value.
The compounds are dissolved in 1% aqueous dextrose solution and administered intravenously from day 1–3 and day 15–17.

[2] = system: SW480 human large intestine cell line; assay type: cell-based
Protocol: (§6) The human large intestine cell lines SW 480 and HT29 (ATCC No. CCL 228) and HTB38 and the mouse melanoma cell line B16F10 (CRL 6475) were grown to confluence in Roux dishes in seromed® RPMI 1640 medium (from Biochrom KG, Berlin) with addition of 10% FCS. They were then trypsinized and taken up in RPMI plus 10% FCS to a cell count of 50,000 cells or, for B16F10, 20,000 cells per mL. 100 μL of cell suspension per well were added to a 96 microwell plate and incubated at 37° C. for 1 day in a CO2 incubator. A further 100 μL of RPMI medium and 1 μL of DMSO were then added with the test substances. The growth was checked after day 6. For this purpose, 25 μL of MTT solution (3-(4,5-dimethylthiazol-2-yl)-2,5-diphenyltetrazolium bromide) were added to each well at a starting concentration of 5 mg/mL of water. The plate was incubated at 37° C. for 5 hours in a CO2 incubator. The medium was then aspirated and 100 1L of i-propanol/well were added. After shaking with 100 μL of water for 30 min, the extinction was measured at 595 nm using a Multiplate Reader (BIO-RAD 3550-UV).
(§7) The cytostatic action is indicated in Table 3 as an IC50 value, in each case for the individual cell lines.

[3] = system: HT29 human large intestine cell line; assay type: cell-based
Protocol: as §6, §7

[4] = system: B16F10 mouse melanoma cell line; assay type: cell-based
Protocol: as §6, §7

[5] = molecular target: T1, αvβ3 receptor (αvβ3 from human A375 cells) (Homo sapiens, UniProt P05106+P06756); experiment: αvβ3 binding test (echistatin displacement, SPA)
T1 construct: αvβ3 from human A375 cells was purified analogously to a procedure described by Wong et al; endogenous in cells; host or cells: human A375 cells (endogenous receptor, detergent-solubilised and purified)
Protocol: αvβ3 from human A375 cells was purified analogously to a procedure described by Wong et al. in Molecular Pharmacology 50, 529–537 (1996). In each case, 10 μL of αvβ3 (5 ng) in TBS pH 7.6, 2 mM CaCl2, 1 mM MgCl2, 1% n-octylglucopyranoside (Sigma); 10 μL of test substance in TBS pH 7.6, 0.1% DMSO and 45 μL of TBS pH 7.6, 2 mM CaCl2, 1 mM MgCl2, 1 mM MnCl2 were incubated at room temperature for 1 h. In each case, 25 μL of WGA SPA beads (Amersham, 4 mg/ml) and 10 μL of echistatin (0.1 μCi, Amersham, chloramine-T labelled) were then added. After 16 h at room temperature, the samples were measured in a scintillation measuring apparatus (Wallac 1450).

[6] = system: renal xenograft (RXF 944)
Source text: as §1, §2, §3, §4, §5

[7] = system: melanoma xenograft (MEXF 989); assay type: in vivo, athymic nude mice (NMRI nu/nu strain)
[8] = system: hemopoietic stem cells (bone marrow cells); experiment: cells; assay type: cell-based, mice
Protocol: Bone marrow cells are flushed out of the femur of mice. 10^5 cells are incubated in McCoy 5A medium (0.3% agar) together with recombinant murine GM-CSF (Genzyme; parent cell colony formation) and the substances (10^−4 to 100 μg/ml) at 37° C. and 7% CO2. 7 days later, the colonies (<50 cells) and clusters (17–50 cells) are counted.

[9] = IC50 values of the binding to the αVβ3 receptor
[10] = MX-1, 6 mg/kg/day intravenously day 1–3 and day 15–17
[11] = read-out: IC50 values of the binding to the αVβ3 receptor
[12] = RXF 944, 6 mg/kg/day intravenously day 1–3 and day 15–17
[13] = MEXF 989, 6 mg/kg/day intravenously day 1–3 and day 15–17

T1 sequence (P06756 31-889 limits assumed): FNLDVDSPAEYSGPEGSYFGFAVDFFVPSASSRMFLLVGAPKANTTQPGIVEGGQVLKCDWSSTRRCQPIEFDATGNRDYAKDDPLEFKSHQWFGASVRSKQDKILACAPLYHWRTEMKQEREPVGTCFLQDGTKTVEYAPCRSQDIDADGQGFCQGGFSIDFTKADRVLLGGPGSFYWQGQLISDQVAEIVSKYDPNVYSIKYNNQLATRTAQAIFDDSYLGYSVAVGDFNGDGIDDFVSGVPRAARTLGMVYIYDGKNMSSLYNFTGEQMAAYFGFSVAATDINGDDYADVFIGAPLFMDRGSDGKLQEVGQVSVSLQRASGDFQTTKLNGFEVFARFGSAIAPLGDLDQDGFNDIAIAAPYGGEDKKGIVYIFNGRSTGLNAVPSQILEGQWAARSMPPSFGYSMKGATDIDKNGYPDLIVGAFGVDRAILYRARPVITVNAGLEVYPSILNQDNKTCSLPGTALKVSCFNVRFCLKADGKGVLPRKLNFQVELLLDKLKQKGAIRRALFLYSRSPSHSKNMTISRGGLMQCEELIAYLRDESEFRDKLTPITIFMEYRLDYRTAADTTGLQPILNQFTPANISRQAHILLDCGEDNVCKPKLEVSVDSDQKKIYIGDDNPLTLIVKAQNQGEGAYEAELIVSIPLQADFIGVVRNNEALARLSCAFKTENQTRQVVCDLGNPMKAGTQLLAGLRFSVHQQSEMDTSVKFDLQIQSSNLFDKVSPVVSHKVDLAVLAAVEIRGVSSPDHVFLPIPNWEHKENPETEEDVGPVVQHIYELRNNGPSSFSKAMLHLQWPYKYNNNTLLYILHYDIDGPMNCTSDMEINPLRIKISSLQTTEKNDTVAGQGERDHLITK
T1 sequence (P06756 891-1048 partner limits assumed): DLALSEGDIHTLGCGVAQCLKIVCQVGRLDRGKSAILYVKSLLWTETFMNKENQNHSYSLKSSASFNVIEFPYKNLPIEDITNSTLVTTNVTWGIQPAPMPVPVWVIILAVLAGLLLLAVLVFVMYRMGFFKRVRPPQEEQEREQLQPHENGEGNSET
T1 sequence (P05106 27-788): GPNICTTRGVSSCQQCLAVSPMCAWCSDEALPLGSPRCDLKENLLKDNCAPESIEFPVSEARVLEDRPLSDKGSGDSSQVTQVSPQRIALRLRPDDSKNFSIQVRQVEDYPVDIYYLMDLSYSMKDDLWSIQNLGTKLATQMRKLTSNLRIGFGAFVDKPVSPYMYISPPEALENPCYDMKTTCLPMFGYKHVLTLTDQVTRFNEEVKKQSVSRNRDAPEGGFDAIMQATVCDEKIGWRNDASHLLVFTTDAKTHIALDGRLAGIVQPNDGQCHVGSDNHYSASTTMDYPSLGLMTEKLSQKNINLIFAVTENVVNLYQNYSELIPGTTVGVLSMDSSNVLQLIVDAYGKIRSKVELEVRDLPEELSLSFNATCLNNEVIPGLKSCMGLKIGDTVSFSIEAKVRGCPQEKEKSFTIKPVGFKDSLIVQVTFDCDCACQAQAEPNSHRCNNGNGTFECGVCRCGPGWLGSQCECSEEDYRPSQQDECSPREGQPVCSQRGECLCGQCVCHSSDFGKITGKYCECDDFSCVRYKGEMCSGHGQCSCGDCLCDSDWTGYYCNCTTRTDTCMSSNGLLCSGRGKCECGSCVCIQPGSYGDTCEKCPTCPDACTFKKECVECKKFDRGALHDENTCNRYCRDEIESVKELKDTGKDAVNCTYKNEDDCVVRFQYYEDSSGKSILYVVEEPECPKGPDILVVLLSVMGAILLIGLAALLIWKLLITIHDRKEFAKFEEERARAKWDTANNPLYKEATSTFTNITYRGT

Row | SMILES | IC50 [2] | IC50 [3] | IC50 [4] | toxicity against stem cells in vitro compared to camptothecin (in words) [8] | IC50 [5, 11] | also measured
1 | CCCNC(=O)Nc1cccc(S(=O)(=O)Nc2cccc(C(CC(=O)[O-])NC(=O)Nc3ccc(NC(=S)NCC(=O)N4CCC[C@H]4C(=O)N[C@H](C(=O)O[C@]4(CC)C(=O)OCc5c4cc4n(c5=O)Cc5cc6ccccc6nc5-4)C(C)C)cc3)c2)c1.[Na+] (single isomer, unassigned) [Example 1] | 150 nM | 60 nM | 160 nM | drastically reduced toxicity against stem cells in vitro compared to camptothecin | – | lethality ([1]; MX-1, 18 mg/kg/day intravenously day 1–3 and day 15–17): 0/5; IC50 [5, 9]: 8 nM; lethality ([6]; RXF 944, 18 mg/kg/day intravenously day 1–3 and day 15–17): 1/7; lethality ([6]; RXF 944, 24 mg/kg/day intravenously day 1–3 and day 15–17): 0/7; lethality ([7]; MEXF 989, 18 mg/kg/day intravenously day 1–3 and day 15–17): 1/5; lethality ([7]; MEXF 989, 24 mg/kg/day intravenously day 1–3 and day 15–17): 1/5
2 | CCCNC(=O)Nc1cccc(S(=O)(=O)Nc2cccc(C(CC(=O)[O-])NC(=O)Nc3ccc(NC(=S)NCC(=O)N4CCC[C@H]4C(=O)N[C@H](C(=O)O[C@]4(CC)C(=O)OCc5c4cc4n(c5=O)Cc5cc6ccccc6nc5-4)C(C)C)cc3)c2)c1.[Na+] (single isomer, unassigned) [Example 2] | 400 nM | 150 nM | 400 nM | drastically reduced toxicity against stem cells in vitro compared to camptothecin | – | IC50 [5, 9]: 800 nM
3 | CCCNC(=O)Nc1cccc(S(=O)(=O)Nc2cccc(C(CC(=O)O)NC(=O)Nc3ccc(NC(=S)N[C@@H](C)C(=O)N4CCC[C@H]4C(=O)N[C@H](C(=O)O[C@]4(CC)C(=O)OCc5c4cc4n(c5=O)Cc5cc6ccccc6nc5-4)C(C)C)cc3)c2)c1 (single isomer, unassigned) [Example 3] | 500 nM | 150 nM | 700 nM | drastically reduced toxicity against stem cells in vitro compared to camptothecin | 15 nM | lethality [1, 10]: 0/5; optimal T/C [1, 10]: 12.4%; inhibition of the tumour growth (in words) ([1]; MX-1, intravenously day 1–3 and day 15–17): effected inhibitions of the tumour growth; lethality [6, 12]: 1/7; optimal T/C [6, 12]: 24.0%; inhibition of the tumour growth (in words) ([6]; RXF 944, intravenously day 1–3 and day 15–17): effected inhibitions of the tumour growth; lethality [7, 13]: 0/5; optimal T/C [7, 13]: 10.3%; inhibition of the tumour growth (in words) ([7]; MEXF 989, intravenously day 1–3 and day 15–17): effected inhibitions of the tumour growth
4 | CCCNC(=O)Nc1cccc(S(=O)(=O)Nc2cccc(C(CC(=O)O)NC(=O)Nc3ccc(NC(=S)N[C@@H](C)C(=O)N4CCC[C@H]4C(=O)N[C@H](C(=O)O[C@]4(CC)C(=O)OCc5c4cc4n(c5=O)Cc5cc6ccccc6nc5-4)C(C)C)cc3)c2)c1 (single isomer, unassigned) [Example 4] | 600 nM | 150 nM | 700 nM | drastically reduced toxicity against stem cells in vitro compared to camptothecin | 500 nM | –
5 | CCCNC(=O)Nc1cccc(S(=O)(=O)Nc2cccc(C(CC(=O)O)NC(=O)Nc3ccc(NC(=S)N[C@@H](Cc4c[nH]cn4)C(=O)N4CCC[C@H]4C(=O)N[C@H](C(=O)O[C@]4(CC)C(=O)OCc5c4cc4n(c5=O)Cc5cc6ccccc6nc5-4)C(C)C)cc3)c2)c1 (single isomer, unassigned) [Example 5] | 700 nM | 300 nM | 1000 nM | – | 30 nM | –
6 | CCCNC(=O)Nc1cccc(S(=O)(=O)Nc2cccc(C(CC(=O)O)NC(=O)Nc3ccc(NC(=S)N[C@@H](CC(N)=O)C(=O)N4CCC[C@H]4C(=O)N[C@H](C(=O)O[C@]4(CC)C(=O)OCc5c4cc4n(c5=O)Cc5cc6ccccc6nc5-4)C(C)C)cc3)c2)c1 (single isomer, unassigned) [Example 6] | 400 nM | 200 nM | 600 nM | – | 100 nM | –
7 | CCCNC(=O)Nc1cccc(S(=O)(=O)Nc2cccc(C(CC(=O)O)NC(=O)Nc3ccc(NC(=S)N[C@@H](CCC)C(=O)N4CCC[C@H]4C(=O)N[C@H](C(=O)O[C@]4(CC)C(=O)OCc5c4cc4n(c5=O)Cc5cc6ccccc6nc5-4)C(C)C)cc3)c2)c1 (single isomer, unassigned) [Example 7] | 600 nM | 350 nM | 1000 nM | – | 100 nM | –
8 | CCCNC(=O)Nc1cccc(S(=O)(=O)Nc2cccc(C(CC(=O)O)NC(=O)Nc3ccc(NC(=S)N[C@@H](CC(=O)O)C(=O)N4CCC[C@H]4C(=O)N[C@H](C(=O)O[C@]4(CC)C(=O)OCc5c4cc4n(c5=O)Cc5cc6ccccc6nc5-4)C(C)C)cc3)c2)c1 (single isomer, unassigned) [Example 8] | 50 nM | 50 nM | 300 nM | – | – | –
9 | CCCNC(=O)Nc1cccc(S(=O)(=O)Nc2cccc(C(CC(=O)O)NC(=O)Nc3ccc(NC(=S)NCC(=O)N4CCC[C@H]4C(=O)N[C@@H](CC(C)C)C(=O)O[C@]4(CC)C(=O)OCc5c4cc4n(c5=O)Cc5cc6ccccc6nc5-4)cc3)c2)c1 (single isomer, unassigned) [Example 9] | 70 nM | 30 nM | 80 nM | – | – | –
10 | CCCNC(=O)Nc1cccc(S(=O)(=O)Nc2cccc(C(CC(=O)O)NC(=O)Nc3ccc(NC(=S)N[C@@H](C)C(=O)N4CCC[C@H]4C(=O)N[C@@H](CC(C)C)C(=O)NC4C=CCC5CN(c6c(F)cc7c(=O)c(C(=O)O)cn(C8CC8)c7c6Cl)CC54)cc3)c2)c1 (single isomer, unassigned) [Example 12] | – | – | – | – | 30 nM | IC50 ([2]; 6 days): 1000 nM; IC50 ([3]; 6 days): 600 nM; IC50 ([4]; 6 days): 2000 nM
11 | CC[C@@]1(O)C(=O)OCc2c1cc1n(c2=O)Cc2cc3ccccc3nc2-1 [camptothecin, 20(S)-Camptothecin, reference compound] | – | – | – | – | – | lethality ([6]; RXF 944, 2.5 mg/kg/day): 0/6; optimal T/C ([6]; RXF 944, 2.5 mg/kg/day): 41.1%; IC50 ([8]; Mus musculus, Bone marrow cell, 168 h, murine bone marrow cells, GM-CSF, 7 days, read-out: IC50 values of toxicity against hemopoietic stem cells): 3 ng/mL (≈ 8.61 nM)
12 | CC[C@@]1(O)C(=O)OCc2c1cc1n(c2=O)Cc2cc3c(CN(C)C)c(O)ccc3nc2-1 [topotecan, reference compound] | – | – | – | – | – | lethality ([6]; RXF 944, 1.8 mg/kg/day): 0/7; optimal T/C ([6]; RXF 944, 1.8 mg/kg/day): 47.8%
